biological target: T1, human neutrophil elastase (HNE) (Homo sapiens, UniProt P08246); test: HNE inhibition assay; type: biochemical
T1 sequence (P08246 30-267): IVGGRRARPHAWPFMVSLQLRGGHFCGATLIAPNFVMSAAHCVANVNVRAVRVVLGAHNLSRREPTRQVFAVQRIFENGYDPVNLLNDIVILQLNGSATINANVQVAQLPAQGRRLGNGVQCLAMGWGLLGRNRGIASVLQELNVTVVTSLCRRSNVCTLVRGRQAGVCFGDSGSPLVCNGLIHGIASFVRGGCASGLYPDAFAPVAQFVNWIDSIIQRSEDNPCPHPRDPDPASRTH

| IC50 [nM] | SMILES |
| --- | --- |
| 33 ± 1 | O=C(C1CC1)n1cc(-c2ccc(C(F)(F)F)cc2)c(=O)o1 [Compound 3i, 2-(Cyclopropanecarbonyl)-4-(4-(trifluoromethyl)phenyl)isoxazol-5(2H)-one] |
| 46 ± 12 | Cc1cccc(C(=O)n2cc(-c3ccccc3)c(=O)o2)c1 [Compound 4a, 2-(3-Methylbenzoyl)-4-phenylisoxazol-5(2H)-one] |
| 22 ± 7 | Cc1ccc(-c2cn(C(=O)c3cccc(C)c3)oc2=O)cc1 [Compound 4b, 2-(3-Methylbenzoyl)-4-(p-tolyl)isoxazol-5(2H)-one] |
| 31 ± 3 | Cc1cccc(C(=O)n2cc(-c3cccc(C)c3)c(=O)o2)c1 [Compound 4c, 2-(3-Methylbenzoyl)-4-(m-tolyl)isoxazol-5(2H)-one] |
| 28 ± 3 | Cc1cccc(C(=O)n2cc(-c3ccccc3C)c(=O)o2)c1 [Compound 4d, 2-(3-Methylbenzoyl)-4-(o-tolyl)isoxazol-5(2H)-one] |
| 47 ± 7 | Cc1cccc(C(=O)n2cc(-c3ccc(Br)cc3)c(=O)o2)c1 [Compound 4e, 4-(4-Bromophenyl)-2-(3-methylbenzoyl)isoxazol-5(2H)-one] |
| 25 ± 2 | Cc1cccc(C(=O)n2cc(-c3ccc(Cl)cc3)c(=O)o2)c1 [Compound 4f, 4-(4-Chlorophenyl)-2-(3-methylbenzoyl)isoxazol-5(2H)-one] |
| 23 ± 7 | COc1ccc(-c2cn(C(=O)c3cccc(C)c3)oc2=O)cc1 [Compound 4g, 4-(4-Methoxyphenyl)-2-(3-methylbenzoyl)isoxazol-5(2H)-one] |
| 78 ± 2 | Cc1cccc(C(=O)n2cc(-c3ccc(C#N)cc3)c(=O)o2)c1 [Compound 4h, 4-(2-(3-Methylbenzoyl)-5-oxo-2,5-dihydroisoxazol-4-yl)benzonitrile] |
| 81 ± 28 | Cc1cccc(C(=O)n2cc(-c3ccc(C(F)(F)F)cc3)c(=O)o2)c1 [Compound 4i, 2-(3-Methylbenzoyl)-4-(4-[trifluoromethyl]phenyl)isoxazol-5(2H)-one] |

More lines, now with the values behind:

| SMILES | IC50 [nM] |
| --- | --- |
| O=C(C1CC1)n1cc(-c2ccccc2)c(=O)o1 [Compound 3a, 2-(Cyclopropanecarbonyl)-4-phenylisoxazol-5(2H)-one] | 16 ± 5 |
| Cc1ccc(-c2cn(C(=O)C3CC3)oc2=O)cc1 [Compound 3b, 2-(Cyclopropanecarbonyl)-4-(p-tolyl)isoxazol-5(2H)-one] | 26 ± 4 |
| Cc1cccc(-c2cn(C(=O)C3CC3)oc2=O)c1 [Compound 3c, 2-(Cyclopropanecarbonyl)-4-(m-tolyl)isoxazol-5(2H)-one] | 22 ± 5 |
| Cc1ccccc1-c1cn(C(=O)C2CC2)oc1=O [Compound 3d, 2-(Cyclopropanecarbonyl)-4-(o-tolyl)isoxazol-5(2H)-one] | 39 ± 11 |
| O=C(C1CC1)n1cc(-c2ccc(Br)cc2)c(=O)o1 [Compound 3e, 4-(4-Bromophenyl)-2-(cyclopropanecarbonyl)isoxazol-5(2H)-one] | 31 ± 3 |
| O=C(C1CC1)n1cc(-c2ccc(Cl)cc2)c(=O)o1 [Compound 3f, 4-(4-Chlorophenyl)-2-(cyclopropanecarbonyl)isoxazol-5(2H)-one] | 42 ± 8 |
| COc1ccc(-c2cn(C(=O)C3CC3)oc2=O)cc1 [Compound 3g, 2-(Cyclopropanecarbonyl)-4-(4-methoxyphenyl)isoxazol-5(2H)-one] | 11 ± 3 |
| N#Cc1ccc(-c2cn(C(=O)C3CC3)oc2=O)cc1 [Compound 3h, 4-(2-(Cyclopropanecarbonyl)-5-oxo-2,5-dihydroisoxazol-4-yl)benzonitrile] | 18 ± 5 |
